Assay results from paper PMC5282955, “Fatty acid binding profile of the liver X receptor α” (Journal of Lipid Research, 2017).

How the values were obtained:
Assay type in all cases: binding
[1] = biological target: T1, LXRα (Homo sapiens, UniProt Q13133); experiment: intrinsic aromatic fluorescence quenching; also displacement of BODIPY C16-CoA (Ki […])
T1 construct: gene NR1H3
T1 sequence (Q13133 1-447): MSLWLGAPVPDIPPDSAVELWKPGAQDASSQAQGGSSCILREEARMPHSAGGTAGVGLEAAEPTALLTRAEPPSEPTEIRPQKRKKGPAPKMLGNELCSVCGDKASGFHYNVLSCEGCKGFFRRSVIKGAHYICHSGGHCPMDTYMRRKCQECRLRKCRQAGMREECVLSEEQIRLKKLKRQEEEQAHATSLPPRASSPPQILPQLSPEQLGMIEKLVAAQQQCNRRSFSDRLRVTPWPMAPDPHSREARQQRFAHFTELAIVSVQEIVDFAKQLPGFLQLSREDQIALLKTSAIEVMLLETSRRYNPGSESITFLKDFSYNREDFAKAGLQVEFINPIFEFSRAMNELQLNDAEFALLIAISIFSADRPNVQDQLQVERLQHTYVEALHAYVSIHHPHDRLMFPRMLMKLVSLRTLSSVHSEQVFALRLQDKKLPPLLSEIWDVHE

[2] = biological target: T1, LXRα; experiment: displacement of LXRα-bound BODIPY C16-CoA; CD change
[3] = biological target: T1, LXRα; experiment: intrinsic aromatic fluorescence quenching; displacement Ki […]; LXRE reporter activation
[4] = biological target: T1, LXRα; experiment: intrinsic aromatic fluorescence quenching (positive control), CD; LXRE reporter activation
[5] = biological target: T1, LXRα; experiment: intrinsic aromatic fluorescence quenching; also displacement of BODIPY C16-CoA (Ki […]); remark: listed apart in the source
[6] = biological target: T1, LXRα; experiment: intrinsic aromatic fluorescence quenching; also displacement of BODIPY C16-CoA (Ki […]); CD
[7] = biological target: T1, LXRα; experiment: as above; remark: listed apart in the source

Structure (SMILES): CCCCCCCCCCCCCCCC(=O)SCCNC(=O)CCNC(=O)[C@H](O)C(C)(C)COP(=O)(O)OP(=O)(O)OC[C@H]1O[C@@H](n2cnc3c(N)ncnc32)[C@H](O)[C@@H]1OP(=O)(O)O [C16:0-CoA, Palmitoyl-CoA]
- Kd [1]: 0.014 ± 0.007 µM

Structure (SMILES): CCCCCCCCCC(=O)SCCNC(=O)CCNC(=O)[C@H](O)C(C)(C)COP(=O)(O)OP(=O)(O)OC[C@H]1O[C@@H](n2cnc3c(N)ncnc32)[C@H](O)[C@@H]1OP(=O)(O)O [C10:0-CoA, Decanoyl-CoA]
- Ki [2]: 0.007 ± 0.003 µM

Structure (SMILES): CCCCCCCCCCCC(=O)O [C12:0, Lauric acid]
- Kd [3]: 0.011 ± 0.004 µM

Structure (SMILES): C[C@H](CCCC(C)(C)O)[C@H]1CC[C@H]2[C@@H]3CC=C4C[C@@H](O)CC[C@]4(C)[C@H]3CC[C@]12C [25-HC, 25-hydroxycholesterol]
- intrinsic aromatic fluorescence quenching (positive control), CD; LXRE reporter [4]: Binding with T-0901317 and 25-hydroxycholesterol (positive controls) yielded binding curves that were sharply saturable

Structure (SMILES): CCCCCCCCCCCC(=O)SCCNC(=O)CCNC(=O)[C@H](O)C(C)(C)COP(=O)(O)OP(=O)(O)OC[C@H]1O[C@@H](n2cnc3c(N)ncnc32)[C@H](O)[C@@H]1OP(=O)(O)O [C12:0-CoA, Lauroyl-CoA]
- Kd [5]: 0.018 ± 0.008 µM

Structure (SMILES): CCCCCCCCCC(=O)O [C10:0, Decanoic acid]
- Kd [6]: 0.015 ± 0.006 µM

Structure (SMILES): CCCCCCCC(=O)SCCNC(=O)CCNC(=O)[C@H](O)C(C)(C)COP(=O)(O)OP(=O)(O)OC[C@H]1O[C@@H](n2cnc3c(N)ncnc32)[C@H](O)[C@@H]1OP(=O)(O)O [C8:0-CoA, Octanoyl-CoA]
- Kd [7]: 0.015 ± 0.005 µM
